For experiment [1], the system named is HUV-EC-C cells (aFGF, FGF-R). Briefly: cells. It is filed as cell-based. The settings on record: Homo sapiens, HUVEC, read-out: HUVEC aFGF IC50.
Method: Repeat the wash two more times with D-PBS, resuspend the cells in-about 1 ml assay medium/15 cm^2 of tissue culture flask. […] Add cells to 96-well flat-bottom plates at 100 μl/well or 0.8-1.0×10^4 cells/well, incubate −24h at 37° C., 5% CO2.
Use the same assay medium as mentioned in day 0, step 2 above. Titrations are made by adding 90 μl/well of test compound at 200 μM (4× the final well concentration) to the top well of a particular plate column. Since the stock test compound is usually 20 mM in DMSO, the 200 μM drug concentration contains 2% DMSO.
A diluent made up to 2% DMSO in assay medium (F12K+0.5% fetal bovine serum) is used as diluent for the test compound titrations in order to dilute the test compound but keep the DMSO concentration constant. Add this diluent to the remaining wells in the column at 60 μl/well. Take 60 μl from the 120 μl of 200 μM test compound dilution in the top well of the column and mix with the 60 μl in the second well of the column. Take 60 μl from this well and mix with the 60 μl in the third well of the column, and so on until two-fold titrations are completed. When the next-to-the-last well is mixed, take 60 μl of the 120 μl in this well and discard it. Leave the last well with 60 μl of DMSO/media diluent as a non-test compound-containing control. […] In triplicate, add 50 μl/well of 80 μg/ml VEGF, 20 ng/ml ECGF, or media control to each test compound condition. As with the test compounds, the growth factor concentrations are 4× the desired final concentration. Use the assay media from day 0 step 2 to make the concentrations of growth factors.
Freeze plates overnight at −20° C.
In experiment [2] the test system is endogenous FGF receptors in 3Tc7/EGFr cells. Kind of experiment: FGF-induced BrdU incorporation assay. It is filed as cell-based. The settings on record: read-out: FGF-Induced BrdU Incorp. IC50. Here is the method: The cellular/catalytic assays described herein are performed in an ELISA format. The general procedure is as follows: a compound is introduced to cells expressing the test kinase, either naturally or recombinantly, for a selected period of time after which, if the test kinase is a receptor, a ligand known to activate the receptor is added. The cells are lysed and the lysate is transferred to the wells of an ELISA plate previously coated with a specific antibody recognizing the substrate of the enzymatic phosphorylation reaction. Non-substrate components of the cell lysate are washed away and the amount of phosphorylation on the substrate is detected with an antibody specifically recognizing phosphotyrosine compared with control cells that were not contacted with a test compound. The cellular/biologic assays described herein measure the amount of DNA made in response to activation of a test kinase, which is a general measure of a proliferative response. The general procedure for this assay is as follows: a compound is introduced to cells expressing the test kinase, either naturally or recombinantly, for a selected period of time after which, if the test kinase is a receptor, a ligand known to activate the receptor is added. After incubation at least overnight, a DNA labeling reagent such as Bromodeoxyuridine (BrdU) or 3H-thymidine is added. The amount of labeled DNA is detected with either an anti-BrdU antibody or by measuring radioactivity and is compared to control cells not contacted with a test compound.
FGF-Induced BrdU incorporation Assay
This assay measures FGF-induced DNA synthesis in 3Tc7/EGFr cells that express endogenous FGF receptors.
Materials and Reagents: • 1. FGF: human FGF2/bFGF (Gibco BRL, No. 13256-029). • 2. BrdU Labeling reagent, (10 mM PBS (pH 7.4), Boehringer Mannheim Cat No. 1 647 229). • 3. Fixdenat fixation solution (Boehringer Mannheim Cat No. 1 647 229). • 4. Anti-BrdU-POD (mouse monoclonal antibody conjugated with peroxidase, Boehringer Mannheim Cat. No. 1 647 229). • 5. TMB (tetramethylbenzidine, Boehringer Mannheim Cat. No. 1 647 229). • 6. PBS washing solution, pH 7.4 (Sugen, Inc.). • 7. Albumin, bovine (BSA), fraction V powder (Sigma Chemical Co., Cat. No. A-8551)
Procedure • 1. 3T3 engineered cell line: 3T3c7/EGFr. • 2. Cells are seeded at 8,000 cells/well in DMEM, 10% CS and 2 mM Gln in a 96-well plate. Incubate 24 hours at 37° C. in 5% CO2. • 3. After 24 hours, wash cells with PBS then serum starve in serum free medium (0% DMEM, 0.1% BSA) for 24 hours. • 4. Add ligand (FGF2 (1.5 nM in DMEM with 0.1% BSA) and test compound simultaneously. Negative control wells receive serum free DMEM with 0.1% BSA only, positive control wells receive FGF2 ligand but no test compound. Test compounds are prepared in serum-free DMEM with ligand in a 96-well plate and serially diluted to make seven (7) test concentrations. • 5. After 20 hours, add diluted BrdU labeling reagent (1:100 BrdU:DMEM, 0.1% BSA, final concentration is 10 μM) to the cells and incubate for 1.5 hours. • 6. Decant medium. Remove traces of material with paper towel. Add FixDenat (50 μl/well) and incubate at room temperature for 45 minutes on a plate shaker. • 7. Remove Fixdenat solution. Add blocking solution (5% dehydrated milk in PBS (200 μl/well)) and incubate for 30 minutes at room temperature on a plate shaker. • 8. Decant blocking solution, wash wells once with PBS. Add anti-BrdU-POD solution (1:100 dilution in PBS, 0.1% BSA), incubate for 90 minutes at room temperature on a plate shaker. • 9. Decant antibody conjugate, rinse wells 5 times with PBS. Dry plate by inverting on paper towel and tapping. • 10. Add TMB solution (100 μl/well), incubate 20 minutes at room temperature on a plate shaker until color development is sufficient for photometric detection. • 11. Measure absorbance at 410 nm on a Dynatech ELISA plate reader using “Dual wavelength” mode with a filter at 490 nM. Biochemical EGFR Assay
(Incorporation of labelled thymidine or its analogues reports DNA synthesis.)

The source of these data is patent publication US6855730B2, “3-methylidenyl-2-indolinone modulators of protein kinase” (Sugen, Inc., priority 1998, dated 2005).

By pIC50 is commonly meant −log10 of the IC50, conventionally taken in molar units.

pIC50: −log10 of the molar value. Like-named read-outs stand apart in the source and are kept apart here.

Regarding `CNC(=O)CCc1c(/C=C2\C(=O)Nc3ccccc32)[nH]c2c1CCCC2` [Example 201, N-Methyl-3-[2-(2-oxo-1,2-dihydroindol-3-ylidenemethyl)-4,5,6,7-tetrahydro-1H-indol-3-yl]-propionamide], the pIC50 was 6.80 in experiment [1] (aFGF-stimulated) and under 4.30 in experiment [2].

Turning to `NC(=O)CCc1c(/C=C2\C(=O)Nc3ccccc32)[nH]c2c1CCCC2` [Example 199, 3-[2-(2-Oxo-1,2-dihydroindol-3-ylidenemethyl)-4,5,6,7-tetrahydro-1H-indol-3-yl]-propionamide], the pIC50 is 7.00 in experiment [1] (aFGF-stimulated) and under 4.30 in experiment [2].

On to `Cc1c[nH]c(/C=C2\C(=O)Nc3ccc(Br)cc32)c1CCC(=O)O` [Example 220, 3-[2-(5-Bromo-2-oxo-1,2-dihydroindol-3-ylidenemethyl)-4-methyl-1H-pyrrol-3-yl]-propionic acid], for which the pIC50 in experiment [2] was under 4.30.

Regarding `Cc1c[nH]c(/C=C2\C(=O)Nc3cccc(C)c32)c1CCC(=O)O` [Example 218, 3-[2-(4-Methyl-2-oxo-1,2-dihydroindol-3-ylidenemethyl)-4-methyl-1H-pyrrol-3-yl]-propionic acid], in experiment [2], the pIC50 is under 4.30.

As for `O=C(O)CCc1c(/C=C2\C(=O)Nc3ccc(Cl)cc32)[nH]c2c1CCCC2` [Example 191, 3-[2-(5-Chloro-2-oxo-1,2-dihydroindol-3-ylidenemethyl)-4,5,6,7-tetrahydro-1H-indol-3-yl]-propionic acid], the pIC50 in experiment [1] (aFGF-stimulated) was 6.60; in experiment [2], 4.63.

`Cc1c[nH]c(/C=C2\C(=O)Nc3ccccc32)c1CCC(=O)O` [Example 215, 3-[4-Methyl-2-(2-oxo-1,2-dihydroindol-3-ylidenemethyl)-1H-pyrrol-3-yl]-propionic acid]: the figures for the pIC50 in experiment [1] and in experiment [2] were 5.96 and 4.60, respectively.

Turning to `COc1ccc2c(c1)NC(=O)/C2=C\c1[nH]c2c(c1CCC(=O)O)CCCC2` [Example 196, 3-[2-(6-Methoxy-2-oxo-1,2-dihydroindol-3-ylidenemethyl)-4,5,6,7-tetrahydro-1H-indol-3-yl]-propionic acid], in experiment [1] (aFGF-stimulated), the pIC50 is 5.80.

In the case of `CN(C)CCCc1c(/C=C2\C(=O)Nc3ccccc32)[nH]c2c1CCCC2` [Example 198, 3-[3-(3-Dimethylaminopropyl)-4,5,6,7-tetrahydro-1H-indol-2-ylmethylene]-1,3-dihydroindol-2-one], the pIC50 in experiment [2] was under 4.30.

As for `O=C(CCc1c(/C=C2\C(=O)Nc3ccccc32)[nH]c2c1CCCC2)NCCN1CCOCC1` [Example 202, N-(2-Morpholin-4-ylethyl)-3-[2-(2-oxo-1,2-dihydroindol-3-ylidenemethyl)-4,5,6,7-tetrahydro-1H-indol-3-yl]-propionamide], the pIC50 in experiment [2] is under 4.30.

For `O=C1Nc2ccccc2/C1=C/c1[nH]c2c(c1CCC(=O)N1CCOCC1)CCCC2` [Example 200, 3-[3-(3-Morpholin-4-yl-3-oxopropyl)-4,5,6,7-tetrahydro-1H-indol-2-ylmethylene]-1,3-dihydroindol-2-one], the pIC50 in experiment [2] is under 4.30.

Consider `COc1ccc2c(c1)NC(=O)/C2=C\c1[nH]cc(C)c1CCC(=O)O` [Example 217, 3-[2-(6-Methoxy-2-oxo-1,2-dihydroindol-3-ylidenemethyl)-4-methyl-1H-pyrrol-3-yl]-propionic acid], for which, in experiment [2], the pIC50 is under 4.30.

As for `CN(C)C(=O)CCc1c(/C=C2\C(=O)Nc3ccccc32)[nH]c2c1CCCC2` [Example 197, N,N-Dimethyl-3-[2-(2-oxo-1,2-dihydroindol-3-ylidenemethyl)-4,5,6,7-tetrahydro-1H-indol-3-yl]-propionamide], the values for the pIC50 in experiment [1] (aFGF-stimulated) and in experiment [2] were 3.69 and under 4.30, respectively.
